In US8933024B2, “Azolopyridin-3-one derivatives as inhibitors of lipases and phospholipases” (Sanofi, priority 2010, dated 2015):

biological target: endothelial lipase (EL) (Homo sapiens (Human), UniProt Q9Y5X9); test: Test for inhibition of EL (assay for EL activity); format: biochemical; conditions: phospholipase-specific Bodipy phosphocholine substrate; 37° C. for 90 minutes; enzyme from conditioned medium of recombinant cell lines (CHO, HEK293)
Text: Test for inhibition of EL:
EL is released as a secretory protein by recombinant cell lines (CHO, HEK293) in high concentration into cell culture medium (conditioned medium). This was used as an enzyme solution after concentration.
For characterization of the enzymatic activity of endothelial lipase and the effect of inhibitors, the phospholipase-specific substrate 1,2-bis(4,4-difluoro-5,7-dimethyl-4-bora-3a,4a-diaza-s-indacene-3-undecanoyl)-sn-glycero-3-phosphocholine (manufacturer: Molecular Probes) was used. Hydrolysis of the A1 ester bond of this phospholipid by the enzyme releases the fluorescent dye Bodipy, which can be detected by measuring the fluorescence after separation by thin-layer chromatography on an HPTLC plate (silica gel 60, Merck) or directly in the reaction vessel. To prepare the substrate solution, 100 μg of 1,2-bis(4,4-difluoro-5,7-dimethyl-4-bora-3a,4a-diaza-s-indacene-3-undecanoyl)-sn-glycero-3-phosphocholine (manufacturer: Molecular Probes) were dissolved in 100 μl of DMSO and taken up in 2.4 mg of tripalmitin (Sigma) in 393 μl of chloroform which contained 20 mg/ml DOP—choline (1,2-dioleoyl-sn-glycero-3-phosphocholine). 39.3 μl of this lipid mixture were transferred into a fresh reaction vessel and the solvent was evaporated off. The lipid mixture was dissolved by sonicating twice in 4 ml of 200 mM TRIS-HCl, 150 mM sodium chloride, pH=7.4. The subsequent enzyme reaction was effected at 37° C. for 90 minutes. For this purpose, 20 μl of the substrate solution were incubated with 2 μl of inhibitor of appropriate concentration (dissolved in 10% DMSO; 10% DMSO solution was used as a control) and 2 μl of enzyme solution (conditioned medium). Thereafter, 4 μl of the test mixture were applied to an HPTLC plate (silica gel 60, Merck) and the fluorescent dye released was separated for detection with an eluent (diethyl ether:petroleum:acetic acid [78:22:1]). After the eluent had been evaporated off, the plate was read in a fluorescence scanner.

Sequence of endothelial lipase (EL) (Q9Y5X9 21-500): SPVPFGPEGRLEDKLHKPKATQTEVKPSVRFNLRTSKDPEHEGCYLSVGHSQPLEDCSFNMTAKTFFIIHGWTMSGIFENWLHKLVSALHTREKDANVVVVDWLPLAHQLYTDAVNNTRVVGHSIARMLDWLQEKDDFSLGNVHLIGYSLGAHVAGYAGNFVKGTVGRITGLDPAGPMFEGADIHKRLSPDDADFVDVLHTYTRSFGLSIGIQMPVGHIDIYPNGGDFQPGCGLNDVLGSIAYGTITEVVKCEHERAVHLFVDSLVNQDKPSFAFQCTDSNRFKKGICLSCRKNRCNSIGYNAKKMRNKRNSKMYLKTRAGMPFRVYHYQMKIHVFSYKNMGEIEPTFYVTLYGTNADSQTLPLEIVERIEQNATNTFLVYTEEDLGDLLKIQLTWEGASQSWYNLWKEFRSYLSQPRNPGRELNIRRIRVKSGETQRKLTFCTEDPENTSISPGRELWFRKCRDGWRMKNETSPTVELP

| IC50 | Compound |
| --- | --- |
| 264 nM | CSc1cccc(CNC(=O)n2sc3ncccc3c2=O)c1 [Example 59, 3-Oxo-3H-isothiazolo[5,4-b]pyridine-2-carboxylic acid 3-methylsulfanyl-benzylamide] |
| 40 nM | COc1cc(C(C)NC(=O)n2sc3ncccc3c2=O)cc(OC)c1OC (stereo not drawn) [Example 4, 3-Oxo-3H-isothiazolo[5,4-b]pyridine-2-carboxylic acid [1-(3,4,5-trimeth-oxy-phenyl)-ethyl]-amide] |
| 69 nM | O=C(NCc1ccccc1)n1sc2ncccc2c1=O [Example 18, 3-Oxo-3H-isothiazolo[5,4-b]pyridine-2-carboxylic acid benzylamide] |
| 80 nM | COCCOc1ccc([C@@H](C)NC(=O)n2sc3ncccc3c2=O)cc1OC [Example 161, 3-Oxo-3H-isothiazolo[5,4-b]pyridine-2-carboxylic acid {(R)-1-[3-methoxy-4-(2-methoxy-ethoxy)-phenyl]-ethyl}-amide] |
| 148 nM | COc1ccc(C(C)NC(=O)n2sc3ncccc3c2=O)cc1OC (stereo not drawn) [Example 37, 3-Oxo-3H-isothiazolo[5,4-b]pyridine-2-carboxylic acid [1-(3,4-dimethoxy-phenyl)-ethyl]-amide] |
| 182 nM | COc1cccc(CNC(=O)n2sc3ncccc3c2=O)c1 [Example 38, 3-Oxo-3H-isothiazolo[5,4-b]pyridine-2-carboxylic acid 3-methoxy-benzyl-amide] |
| 926 nM | COc1cc(CNC(=O)n2sc3ncccc3c2=O)cc(OC)c1OC [Example 3, 3-Oxo-3H-isothiazolo[5,4-b]pyridine-2-carboxylic acid 3,4,5-trimethoxy-benzylamide] |
| 120 nM | Cc1cccc(C)c1CNC(=O)n1sc2ncccc2c1=O [Example 39, 3-Oxo-3H-isothiazolo[5,4-b]pyridine-2-carboxylic acid 2,6-dimethyl-benz-ylamide] |
| 517 nM | COCCN1CCC(CNC(=O)n2sc3ncccc3c2=O)CC1 [Example 142, 3-Oxo-3H-isothiazolo[5,4-b]pyridine-2-carboxylic acid [1-(2-methoxy-ethyl)-piperidin-4-ylmethyl]-amide] |
| 4290 nM | Cc1cc(C)c(CNC(=O)n2sc3ncccc3c2=O)c(C)c1 [Example 29, 3-Oxo-3H-isothiazolo[5,4-b]pyridine-2-carboxylic acid 2,4,6-trimethyl-benzylamide] |
| 230 nM | CCOc1ccc(CNC(=O)n2sc3ncccc3c2=O)cc1OC [Example 129, 3-Oxo-3H-isothiazolo[5,4-b]pyridine-2-carboxylic acid 4-ethoxy-3-meth-oxy-benzylamide] |
| 116 nM | CSc1ccc(CNC(=O)n2sc3ncccc3c2=O)cc1 [Example 55, 3-Oxo-3H-isothiazolo[5,4-b]pyridine-2-carboxylic acid 4-methylsulfanyl-benzylamide] |
| 28 nM | CC(C)C(NC(=O)n1sc2ncccc2c1=O)c1ccc2c(c1)OCCCO2 (stereo not drawn) [Example 46, 3-Oxo-3H-isothiazolo[5,4-b]pyridine-2-carboxylic acid [1-(3,4-dihydro-2H-benzo[b][1,4]dioxepin-7-yl)-2-methyl-propyl]-amide] |
| 1580 nM | Cc1ccccc1CNC(=O)n1sc2ncccc2c1=O [Example 156, 3-Oxo-3H-isothiazolo(5,4-b]pyridine-2-carboxylic acid 2-methyl-benzyl-amide] |
| 1590 nM | CC(C)Oc1ncccc1CNC(=O)n1sc2ncccc2c1=O [Example 116, 3-Oxo-3H-isothiazolo[5,4-b]pyridine-2-carboxylic acid (2-isopropoxy-pyridin-3-ylmethyl)-amide] |
| 107 nM | COc1ccc(OC)c(CNC(=O)n2sc3ncccc3c2=O)c1 [Example 28, 3-Oxo-3H-isothiazolo[5,4-b]pyridine-2-carboxylic acid 2,5-dimethoxy-benzylamide] |
| 216 nM | COCCOc1ccc(CNC(=O)n2sc3ncccc3c2=O)cn1 [Example 114, 3-Oxo-3H-isothiazolo[5,4-b]pyridine-2-carboxylic acid [6-(2-methoxy-ethoxy)-pyridin-3-ylmethyl]-amide] |
| 391 nM | CC(NC(=O)n1sc2ncccc2c1=O)c1ccc(N2CCOCC2)cc1 (stereo not drawn) [Example 134, 3-Oxo-3H-isothiazolo[5,4-b]pyridine-2-carboxylic acid [1-(4-morpholin-4-yl-phenyl)-ethyl]-amide] |
| 1380 nM | COc1cc(CNC(=O)n2sc3ncccc3c2=O)ccc1OCCN(C)C [Example 115, 3-Oxo-3H-isothiazolo[5,4-b]pyridine-2-carboxylic acid 4-(2-dimethylamino-ethoxy)-3-methoxy-benzylamide] |
| 85 nM | CN(C)Cc1ccc(CNC(=O)n2sc3ncccc3c2=O)cc1 [Example 130, 3-Oxo-3H-isothiazolo[5,4-b]pyridine-2-carboxylic acid 4-dimethylamino-methyl-benzylamide] |

| Compound | IC50 |
| --- | --- |
| CC(NC(=O)n1sc2ncccc2c1=O)c1ccc2c(c1)OCCO2 (stereo not drawn) [Example 5, 3-Oxo-3H-isothiazolo[5,4-b]pyridine-2-carboxylic acid [1-(2,3-dihydro-benzo[1,4]dioxin-6-yl)-ethyl]-amide] | 200 nM |
